Where two headings read alike, the source gives them in different places.
What was measured:
L1210 leukemia cells = test: Culture study with L1210: inhibition of replication/growth of L1210 cells in vitro; type: cell-based; conditions: Mus musculus, read-out: ED50 (drug concentration needed to inhibit cell growth by 50%)
Experimental: The effect of the compounds on the growth of L1210 cells in vitro was used as a measure of cytotoxicity. Suspension cultures were grown in Fischer's media supplemented with 10% horse serum at 37°. 72 Hours after addition of the nitrosoureas, cell numbers were determined in two independent samples, in duplicate, using a Coulter counter, for each concentration tested. ED50 values were estimated from dose-response curves compiled from at least three separate experiments and represent the drug concentration needed to inhibit cell growth by 50%.

L1210 cells [1] = test: Reversal of cytotoxicity of nitrosourea analogs of thymidine by pyrimidine deoxyribonucleosides (inhibition study in L1210 cultures); type: cell-based; conditions: for Percent Reversal: nitrosourea analog 5 μM
L1210 cells [2] = test: In vivo study with CDF1 mice inoculated with L1210 cells
Experimental: Two groups of CDF1 mice were inoculated with 1 × 10^5 L1210 cells/animal intraperitoneally. Two days later, one group of six mice received a single intraperitoneal injection (150 mg/Kg) of compound 5 (5'-[3-(2-chloroethyl)-3-nitrosoureido]-5'-deoxythymidine) and the control group was administered an equal volume of vehicle.

[3] = reversing agent deoxycytidine 0 μM
[4] = reversing agent deoxycytidine 5 μM
[5] = reversing agent deoxycytidine 25 μM
[6] = reversing agent deoxyuridine 0 μM
[7] = reversing agent deoxyuridine 5 μM
[8] = reversing agent deoxyuridine 25 μM
[9] = reversing agent thymidine 25 μM
[10] = single intraperitoneal injection 150 mg/kg, 2 days after 1 × 10^5 L1210 cells, CDF1 mice

## O=NN(CCCl)C(=O)NCCCl [BCNU, 1,3-bis(2-Chloroethyl)-1-nitrosourea, reference compound]
L1210 leukemia cells; L1210, 72 h
  IC50: 4 µM

## Cc1cn([C@H]2C[C@H](NC(=O)N(CCCl)N=O)[C@@H](CO)O2)c(=O)[nH]c1=O [Compound 10, 3'-[3-(2-chloroethyl)-3-nitrosoureido]-3'-deoxythymidine]
L1210 leukemia cells; L1210, 72 h
  IC50: 1.5 µM
L1210 cells [1]; [3]
  Percent Reversal: 0%
L1210 cells [1]; reversing agent deoxycytidine 1 μM
  Percent Reversal: 5%
L1210 cells [1]; [4]
  Percent Reversal: 28%
L1210 cells [1]; [5]
  Percent Reversal: 40%
L1210 cells [1]; [6]
  Percent Reversal: 0%
L1210 cells [1]; reversing agent deoxyuridine 1 μM
  Percent Reversal: 4%
L1210 cells [1]; [7]
  Percent Reversal: 32%
L1210 cells [1]; [8]
  Percent Reversal: 51%
L1210 cells [1]; reversing agent thymidine 0 μM
  Percent Reversal: 0%
L1210 cells [1]; reversing agent thymidine 1 μM
  Percent Reversal: 22%
L1210 cells [1]; reversing agent thymidine 5 μM
  Percent Reversal: 45%
L1210 cells [1]; [9]
  Percent Reversal: 54%

## Cc1cn([C@H]2C[C@H](NC(=O)N(C)N=O)[C@@H](CO)O2)c(=O)[nH]c1=O [Compound 11, 3'-(3-methyl-3-nitrosoureido)-3'-deoxythymidine]
L1210 leukemia cells; L1210 cells in culture, 72 hours, Coulter counter, Fischer's media with 10% horse serum, 37°
  IC50: 1 µM
L1210 cells [1]; Mus musculus, compound 11 5 μM, no deoxycytidine, L1210, 72 hours, read-out: Percent Inhibition
  inhibition at 5 µM: 100%
L1210 cells [1]; compound 11 5 μM + deoxycytidine 5 μM, L1210, 72 hours
  Percent Inhibition: 58%
L1210 cells [1]; compound 11 5 μM + deoxycytidine 25 μM, L1210, 72 hours
  Percent Inhibition: 26%
L1210 cells [1]; compound 11 5 μM + deoxycytidine 125 μM, L1210, 72 hours
  Percent Inhibition: 0%
L1210 cells [1]; [3]
  Percent Reversal: 0%
L1210 cells [1]; [4]
  Percent Reversal: 42%
L1210 cells [1]; [5]
  Percent Reversal: 74%
L1210 cells [1]; reversing agent deoxycytidine 125 μM
  Percent Reversal: 100%
L1210 cells [1]; [6]
  Percent Reversal: 0%
L1210 cells [1]; [7]
  Percent Reversal: 49%
L1210 cells [1]; [8]
  Percent Reversal: 81%
L1210 cells [1]; reversing agent thymidine 0 μM
  Percent Reversal: 0%
L1210 cells [1]; reversing agent thymidine 1 μM
  Percent Reversal: 21%
L1210 cells [1]; reversing agent thymidine 5 μM
  Percent Reversal: 54%
L1210 cells [1]; [9]
  Percent Reversal: 62%

## Cc1cn([C@H]2C[C@H](O)[C@@H](CNC(=O)N(CCCl)N=O)O2)c(=O)[nH]c1=O [Compound 5, 5'-[3-(2-chloroethyl)-3-nitrosoureido]-5'-deoxythymidine]
L1210 cells [2]; single intraperitoneal injection 150 mg/Kg, 2 days after 1 × 10^5 L1210 cells, CDF1 mice
  animals survived more than 60 days: 2/6
L1210 cells [2]; single intraperitoneal injection 150 mg/Kg, L1210, CDF1 mice
  tumor cell kill: ~5 log
L1210 cells [2]; [10]
  increase in life span of the dying animals over the controls: 211%
  long term survivors (>60 days): 33%

Source: patent US4128639A, “Nitrosourea analogs of thymidine” (Research Corporation, priority 1977, dated 1978)
